Assay results reported in article PMC6150310, “Synthesis and Structure–Activity Relationships of 4-Morpholino-7,8-Dihydro-5H-Thiopyrano[4,3-d]pyrimidine Derivatives Bearing Pyrazoline Scaffold” (Molecules : A Journal of Synthetic Chemistry and Natural …, 2017).
Each block holds one compound with its values, some of them ahead of it.

Experiments:
HepG2 cell line = assay: MTT cytotoxicity assay, HepG2; type: cell-based; conditions: Homo sapiens, HepG2, 72 h, average of two determinations, NA = No Activity
Protocol: (§1) Taking GDC-0941 as the reference compound, the target compounds (7a–l and 8a–l) were evaluated for the cytotoxicity against four cancer cell lines A549, PC-3, MCF-7, and HepG2 by 3-(4,5-dimethylthiazolyl-2)-2,5-diphenyltetrazolium bromide (MTT) cell proliferation assay. In order to confirm the types of target compound, selective or mixed-type inhibitors, the selected compound, 8d, was measured for its PI3Kα kinase inhibitory activity together with reference compounds GDC-0941 and PI103 via the Kinase-Glo® Luminescent […] assay. The results expressed as inhibition rates or IC50 values are summarized in Table 1 and Table 2, where the values are the average of at least two independent experiments.
(§2) The in vitro cytotoxic activities of Compounds 7a–l and 8a–l were evaluated with A549, PC-3, HepG2, and MCF-7 cell lines by the standard MTT assay, with GDC-0941 as a positive control. The cancer cell lines were cultured in minimum essential medium (MEM) supplement with 10% fetal bovine serum (FBS). Approximately, 4 × 10^3 cells, suspended in MEM medium, were plated onto each well of a 96-well plate and incubated in 5% CO2 at 37 °C for 24 h. The test compounds at the indicated final concentrations were added to the culture medium, and cell cultures continued for 72 h. Fresh MTT was added to each well at a terminal concentration of […] and incubated with cells at 37 °C for 4 h. The formazan crystals were dissolved in 100 µL of DMSO in each well, and the absorbency at 492 nm (for absorbance of MTT formazan) and 630 nm (for the reference wavelength) was measured with an enzyme linked immunosorbent assay (ELISA) reader (MR-96A Mindray Elisa Microplate Reader, Guangzhou, China). All compounds were tested three times in each of the cell lines. The results expressed as inhibition rates or IC50 were the averages of two determinations and calculated using the Bacus Laboratories Inc. Slide Scanner (Bliss) software (the Bacus Laboratories Inc. Slide Scanner (BLISS) system, Lombard, IL, USA).

A549 cell line = assay: MTT cytotoxicity assay, A549; type: cell-based; conditions: Homo sapiens, A549, 72 h, average of two determinations, NA = No Activity
Protocol: as §1, §2

MCF-7 cell line = assay: MTT cytotoxicity assay, MCF-7; type: cell-based; conditions: Homo sapiens, MCF7, 72 h, average of two determinations, NA = No Activity
Protocol: as §1, §2

PC-3 cell line = assay: MTT cytotoxicity assay, PC-3; type: cell-based; conditions: Homo sapiens, PC-3, 72 h, average of two determinations, NA = No Activity
Protocol: as §1, §2

melting point: 219 to 220 °C
SMILES: O=S1(=O)CCc2nc(N3N=C(c4ccccc4)C[C@@H]3c3ccccc3)nc(N3CCOCC3)c2C1 [Compound 8a, (R)-2-(3,5-Diphenyl-4,5-dihydro-1H-pyrazol-1-yl)-4-morpholino-7,8-dihydro-5H-thiopyrano[4,3-d]pyrimidine 6,6-dioxide]
IC50 (HepG2 cell line): 32.7 ± 0.39 µM
IC50 (A549 cell line): 27.6 ± 0.85 µM
IC50 (MCF-7 cell line): 41.2 ± 1.25 µM

melting point: 246 to 249 °C
SMILES: O=S1(=O)CCc2nc(N3N=C(c4ccc(F)cc4)C[C@@H]3c3ccc(F)cc3)nc(N3CCOCC3)c2C1 [Compound 8g, (R)-2-(3,5-bis(4-Fluorophenyl)-4,5-dihydro-1H-pyrazol-1-yl)-4-morpholino-7,8-dihydro-5H-thiopyrano[4,3-d]pyrimidine 6,6-dioxide]
IC50 (HepG2 cell line): 36.01 ± 0.18 µM
IC50 (A549 cell line): 29.1 ± 0.49 µM
IC50 (PC-3 cell line): 21.8 ± 0.67 µM
IC50 (MCF-7 cell line): 35.3 ± 0.39 µM

SMILES: Cc1ccc(C2=NN(c3nc4c(c(N5CCOCC5)n3)CS(=O)(=O)CC4)[C@@H](c3ccc(Br)cc3)C2)cc1 (racemic) [Compound 8i, (R)-2-(5-(4-Bromophenyl)-3-(p-tolyl)-4,5-dihydro-1H-pyrazol-1-yl)-4-morpholino-7,8-dihydro-5H-thiopyrano[4,3-d]pyrimidine 6,6-dioxide]
IC50 (HepG2 cell line): 24.7 ± 0.74 µM
IC50 (A549 cell line): 28.1 ± 0.89 µM
IC50 (PC-3 cell line): 31.89 ± 0.25 µM

melting point: 109 to 114 °C
SMILES: COc1ccc(C2=NN(c3nc4c(c(N5CCOCC5)n3)CS(=O)(=O)CC4)[C@@H](c3ccccc3)C2)cc1 [Compound 8l, (R)-2-(3-(4-Methoxyphenyl)-5-phenyl-4,5-dihydro-1H-pyrazol-1-yl)-4-morpholino-7,8-dihydro-5H-thiopyrano[4,3-d]pyrimidine 6,6-dioxide]
IC50 (PC-3 cell line): 37.38 ± 0.23 µM

melting point: 194 to 196 °C
SMILES: Cc1ccc(C2=NN(c3nc4c(c(N5CCOCC5)n3)CSCC4)[C@@H](c3ccc(Cl)c(Cl)c3)C2)cc1 [Compound 7b, (R)-4-(2-(5-(3,4-Dichlorophenyl)-3-(p-tolyl)-4,5-dihydro-1H-pyrazol-1-yl)-7,8-dihydro-5H-thiopyrano[4,3-d]pyrimidin-4-yl)morpholine]
IC50 (HepG2 cell line): 27.8 ± 0.99 µM
IC50 (A549 cell line): 24.2 ± 0.74 µM
IC50 (PC-3 cell line): 14.1 ± 3.45 µM
IC50 (MCF-7 cell line): 42.6 ± 1.75 µM

SMILES: COc1ccc(C2=NN(c3nc4c(c(N5CCOCC5)n3)CS(=O)(=O)CC4)[C@@H](c3ccc(Cl)c(Cl)c3)C2)cc1 [Compound 8f, (R)-2-(5-(3,4-Dichlorophenyl)-3-(4-methoxyphenyl)-4,5-dihydro-1H-pyrazol-1-yl)-4-morpholino-7,8-dihydro-5H-thiopyrano[4,3-d]pyrimidine 6,6-dioxide]
IC50 (HepG2 cell line): 35.01 ± 0.18 µM
IC50 (PC-3 cell line): 38.65 ± 0.18 µM

SMILES: Fc1ccc(C2=NN(c3nc4c(c(N5CCOCC5)n3)CSCC4)[C@@H](c3ccc(Br)cc3)C2)cc1 (racemic) [Compound 7j, (R)-4-(2-(5-(4-Bromophenyl)-3-(4-fluorophenyl)-4,5-dihydro-1H-pyrazol-1-yl)-7,8-dihydro-5H-thiopyrano[4,3-d]pyrimidin-4-yl)morpholine]
IC50 (HepG2 cell line): 23.8 ± 0.55 µM
IC50 (A549 cell line): 19.2 ± 1.25 µM
IC50 (PC-3 cell line): 14.8 ± 1.02 µM
IC50 (MCF-7 cell line): 28.25 ± 0.14 µM

melting point: 163 to 167 °C
SMILES: O=S1(=O)CCc2nc(N3N=C(c4ccccc4)C[C@@H]3c3ccc(Br)cc3)nc(N3CCOCC3)c2C1 [Compound 8k, (R)-2-(5-(4-Bromophenyl)-3-phenyl-4,5-dihydro-1H-pyrazol-1-yl)-4-morpholino-7,8-dihydro-5H-thiopyrano[4,3-d]pyrimidine 6,6-dioxide]
IC50 (HepG2 cell line): 35.49 ± 0.33 µM
IC50 (A549 cell line): 35 ± 0.47 µM
IC50 (PC-3 cell line): 33.5 ± 1.67 µM
IC50 (MCF-7 cell line): 32.6 ± 0.49 µM

melting point: 225 to 226 °C
SMILES: Cc1ccc(C2=NN(c3nc4c(c(N5CCOCC5)n3)CS(=O)(=O)CC4)[C@@H](c3ccc(Cl)c(Cl)c3)C2)cc1 [Compound 8b, (R)-2-(5-(3,4-Dichlorophenyl)-3-(p-tolyl)-4,5-dihydro-1H-pyrazol-1-yl)-4-morpholino-7,8-dihydro-5H-thiopyrano[4,3-d]pyrimidine 6,6-dioxide]
IC50 (A549 cell line): 35.6 ± 1.47 µM
IC50 (PC-3 cell line): 17.8 ± 1.18 µM
IC50 (MCF-7 cell line): 42.46 ± 0.03 µM

melting point: 116 to 118 °C
SMILES: COc1ccc(C2=NN(c3nc4c(c(N5CCOCC5)n3)CSCC4)[C@@H](c3ccc(F)cc3)C2)cc1 [Compound 7h, (R)-4-(2-(5-(4-Fluorophenyl)-3-(4-methoxyphenyl)-4,5-dihydro-1H-pyrazol-1-yl)-7,8-dihydro-5H-thiopyrano[4,3-d]pyrimidin-4-yl)morpholine]
IC50 (HepG2 cell line): 20.5 ± 0.67 µM
IC50 (A549 cell line): 26.7 ± 0.88 µM
IC50 (PC-3 cell line): 29.8 ± 0.89 µM
IC50 (MCF-7 cell line): 30.3 ± 0.88 µM

melting point: 162 to 163 °C
SMILES: O=S1(=O)CCc2nc(N3N=C(c4ccc(Br)cc4)C[C@@H]3c3ccc(Cl)c(Cl)c3)nc(N3CCOCC3)c2C1 [Compound 8c, (R)-2-(3-(4-Bromophenyl)-5-(3,4-dichlorophenyl)-4,5-dihydro-1H-pyrazol-1-yl)-4-morpholino-7,8-dihydro-5H-thiopyrano[4,3-d]pyrimidine 6,6-dioxide]
IC50 (HepG2 cell line): 0.06 ± 0.01 µM
IC50 (A549 cell line): 27.8 ± 1.18 µM
IC50 (PC-3 cell line): 37.58 ± 0.22 µM
IC50 (MCF-7 cell line): 43.86 ± 0.15 µM

melting point: 207 to 211 °C
SMILES: Fc1ccc(C2=NN(c3nc4c(c(N5CCOCC5)n3)CSCC4)[C@@H](c3ccc(Cl)c(Cl)c3)C2)cc1 [Compound 7d, (R)-4-(2-(5-(3,4-Dichlorophenyl)-3-(4-fluorophenyl)-4,5-dihydro-1H-pyrazol-1-yl)-7,8-dihydro-5H-thiopyrano[4,3-d]pyrimidin-4-yl)morpholine]
IC50 (HepG2 cell line): 8.39 ± 1.91 µM
IC50 (A549 cell line): 6.02 ± 1.22 µM
IC50 (PC-3 cell line): 8.91 ± 0.72 µM
IC50 (MCF-7 cell line): 10.3 ± 0.94 µM

melting point: 167 to 168 °C
SMILES: Brc1ccc([C@H]2CC(c3ccccc3)=NN2c2nc3c(c(N4CCOCC4)n2)CSCC3)cc1 [Compound 7k, (R)-4-(2-(5-(4-Bromophenyl)-3-phenyl-4,5-dihydro-1H-pyrazol-1-yl)-7,8-dihydro-5H-thiopyrano[4,3-d]pyrimidin-4-yl)morpholine]
IC50 (HepG2 cell line): 32.7 ± 0.36 µM
IC50 (A549 cell line): 31.2 ± 0.59 µM
IC50 (PC-3 cell line): 17.8 ± 0.55 µM
IC50 (MCF-7 cell line): 35.7 ± 0.74 µM

SMILES: O=S1(=O)CCc2nc(N3N=C(c4ccc(F)cc4)C[C@@H]3c3ccc(Br)cc3)nc(N3CCOCC3)c2C1 (racemic) [Compound 8j, (R)-2-(5-(4-Bromophenyl)-3-(4-fluorophenyl)-4,5-dihydro-1H-pyrazol-1-yl)-4-morpholino-7,8-dihydro-5H-thiopyrano[4,3-d]pyrimidine 6,6-dioxide]
IC50 (HepG2 cell line): 27.8 ± 0.64 µM
IC50 (A549 cell line): 29.7 ± 0.32 µM
IC50 (PC-3 cell line): 31.9 ± 0.92 µM
IC50 (MCF-7 cell line): 46.6 ± 0.89 µM

SMILES: Cc1ccc(C2=NN(c3nc4c(c(N5CCOCC5)n3)CSCC4)[C@@H](c3ccc(Br)cc3)C2)cc1 (racemic) [Compound 7i, (R)-4-(2-(5-(4-Bromophenyl)-3-(p-tolyl)-4,5-dihydro-1H-pyrazol-1-yl)-7,8-dihydro-5H-thiopyrano[4,3-d]pyrimidin-4-yl)morpholine]
IC50 (A549 cell line): 16.4 ± 0.43 µM
IC50 (PC-3 cell line): 25.4 ± 0.74 µM

SMILES: Clc1ccc([C@H]2CC(c3ccccc3)=NN2c2nc3c(c(N4CCOCC4)n2)CSCC3)cc1Cl (racemic) [Compound 7e, (R)-4-(2-(5-(3,4-Dichlorophenyl)-3-phenyl-4,5-dihydro-1H-pyrazol-1-yl)-7,8-dihydro-5H-thiopyrano[4,3-d]pyrimidin-4-yl)morpholine]
IC50 (PC-3 cell line): 37.8 ± 3.64 µM
IC50 (MCF-7 cell line): 35.9 ± 0.71 µM

melting point: 144 to 146 °C
SMILES: Fc1ccc(C2=NN(c3nc4c(c(N5CCOCC5)n3)CSCC4)[C@@H](c3ccc(F)cc3)C2)cc1 [Compound 7g, (R)-4-(2-(3,5-Bis(4-fluorophenyl)-4,5-dihydro-1H-pyrazol-1-yl)-7,8-dihydro-5H-thiopyrano[4,3-d]pyrimidin-4-yl)morpholine]
IC50 (HepG2 cell line): 20.3 ± 0.37 µM
IC50 (A549 cell line): 16.9 ± 0.66 µM
IC50 (PC-3 cell line): 15.2 ± 1.54 µM
IC50 (MCF-7 cell line): 26.4 ± 0.37 µM

SMILES: CS(=O)(=O)N1CCN(Cc2cc3nc(-c4cccc5[nH]ncc45)nc(N4CCOCC4)c3s2)CC1 [GDC-0941, Pictilisib dimethanesulfonate, reference compound]
IC50 (HepG2 cell line): 0.07 ± 0.03 µM
IC50 (A549 cell line): 6.99 ± 0.21 µM
IC50 (PC-3 cell line): 0.2 ± 0.08 µM
IC50 (MCF-7 cell line): 4.3 ± 0.84 µM

melting point: > 300 °C
SMILES: COc1ccc(C2=NN(c3nc4c(c(N5CCOCC5)n3)CSCC4)[C@@H](c3ccccc3)C2)cc1 [Compound 7l, (R)-4-(2-(3-(4-Methoxyphenyl)-5-phenyl-4,5-dihydro-1H-pyrazol-1-yl)-7,8-dihydro-5H-thiopyrano[4,3-d]pyrimidin-4-yl)morpholine]
IC50 (A549 cell line): 36.4 ± 0.62 µM
IC50 (PC-3 cell line): 28.25 ± 0.14 µM

SMILES: O=S1(=O)CCc2nc(N3N=C(c4ccccc4)C[C@@H]3c3ccc(Cl)c(Cl)c3)nc(N3CCOCC3)c2C1 [Compound 8e, (R)-2-(5-(3,4-Dichlorophenyl)-3-phenyl-4,5-dihydro-1H-pyrazol-1-yl)-4-morpholino-7,8-dihydro-5H-thiopyrano[4,3-d]pyrimidine 6,6-dioxide]
IC50 (MCF-7 cell line): 35.3 ± 0.49 µM
